Experiments:
AβTotal = experiment: Amyloidβ peptide release (AβTotal) assay, AlphaLisa on supernatant of APPswe-HEK cells; assay type: cell-based, human; conditions: 24 hours, ratio Abtot versus Ab42
Protocol: (§1) Amyloidβ Peptide Release (Aβ42 & AβTotal) Assay to Determine IC50 Values.
(§2) Amyloidβ peptide release (Aβ42 & AβTotal) assay are performed in 384 well microtiter plates (Perkin Elmer AlphaPlate #6008350) in a final volume of 20 μl, using supernatant coming from APPswe-HEK cells exposed to test compounds. Compounds are dissolved in and diluted in 100% DMSO and incubated with APPswe-HEK cells for 24 hours a 37° C. in 5% CO2. The supernatant from APPswe-HEK cells are mixed with antibodies: for Aβ42 detection: AlphaLisa Amyloid β 1-42 Kit (Perkin Elmer AL203L) Anti-Amyloid β1-42-specific antibody acceptor beads, biotinylated anti-Amyloid “β1-42” antibody and streptavidin (SA) donor beads diluted in AlphaLisa buffer (to the instructions of the supplier). For Aβ total detection: Custom Anti-Amyloid βtotal acceptor beads (6E10 acceptor beads), biotinylated anti-Amyloid “β1-42” antibody (Perkin Elmer AL203L) and streptavidin (SA) donor beads diluted in AlphaLisa buffer (to the instructions of the supplier). After addition of supernatant to the antibody mix, the assay is incubated 4 h and 30 minutes. AmyloidP peptide release (Aβ42 & AβTotal) is measured with a Pherastar FS (BMG) multimode reader using the alphascreen module.

Aβ42 = experiment: Amyloidβ peptide release (Aβ42) assay, AlphaLisa on supernatant of APPswe-HEK cells; assay type: cell-based; conditions: Homo sapiens, 24 hours incubation with compound, read-out: Ab42 IC50 Ranges
Protocol: as §1, §2

COc1cc(C(=O)Nc2nnn3c2CCC3c2ccc(Cl)c(Cl)c2)ccc1-n1cnc(C)c1 (centres unmarked) [Example 45]
Abtot/Ab42 selectivity ranges (AβTotal): c (c: 50 fold > selectivity ≧ 10 fold)
IC50 (Aβ42): 0.15 to 0.5 µM

COc1cc(C(=O)Nc2nnn3c2CCC3c2ccc(F)cc2)ccc1-n1cnc(C)c1 (centres unmarked) [Example 46, N-(6-(4-fluorophenyl)-5,6-dihydro-4H-pyrrolo[1,2-c][1,2,3]triazol-3-yl)-3-methoxy-4-(4-methyl-1H-imidazol-1-yl)benzamide]
Abtot/Ab42 selectivity ranges (AβTotal): c (c: 50 fold > selectivity ≧ 10 fold)
IC50 (Aβ42): 0.5 to 1 µM

COc1cc(C(=O)Nc2nnn3c2CCC3c2ccc(F)cc2)ccc1-c1ccnc(C)c1 (centres unmarked) [Example 47, N-(6-(4-fluorophenyl)-5,-dihydro-4H-pyrrolo[1,2-c][1,2,3]triazol-3-yl)-3-methoxy-4-(2-methylpyridin-4-yl)benzamide]
Abtot/Ab42 selectivity ranges (AβTotal): d (d: 10 fold > selectivity)
IC50 (Aβ42): < 1 µM

COc1cc(N(C)C(=O)c2nnn3c2CCCC3c2ccc(Cl)cc2)ccc1-n1cnc(C)c1 (centres unmarked) [Example 48, 7-(4-chlorophenyl)-N-(3-methoxy-4-(4-methyl-1H-imidazol-1-yl)phenyl)-N-methyl-4,5,6,7-tetrahydro-[1,2,3]triazolo[1,5-a]pyridine-3-carboxamide]
Abtot/Ab42 selectivity ranges (AβTotal): a (a: selectivity ≧ 100 fold)
IC50 (Aβ42): < 1 µM
